Reference: patent US20050266088A1, “Formulation for fast dissolution of lipophilic compounds” (Rijksuniversiteit Groningen, priority 2002, published 2005)

Assay: Dissolution experiments on tablets (Prolabo dissolution apparatus)
Format: physicochemical
Conditions: for dissolution rate of the sugar matrix (Anthrone assay): tablets with diazepam, water, 37° C., 100 rpm
Procedure: After compaction the tablets were weighed and subsequently submitted to dissolution experiments.
Dissolution was performed on a Prolabo dissolution apparatus, Rowa Techniek B.V. All experiments were conducted at 37° C. in 1000 mL under constant stirring with 100 rpm. Tablets prepared from physical mixtures and solid dispersions were analysed in triplicate.
To determine the sugar concentrations the Anthrone assay was used. (Scott et al. 1953) Samples were taken at appropriate intervals during the dissolution. […] Due to the enthalpy of mixing, the sample was heated to its boiling point. The boiling mixture was then cooled to room temperature. After 45 minutes the sample was vortexed and […] of sample was analysed in the plate reader at 630 nm. […] In every Anthrone assay a calibration curve of the appropriate sugar in the appropriate medium was established.

Structure (SMILES)	release of drug from physical mixture tablets	release of drug from solid dispersion tablets	dissolution rate of the sugar matrix (Anthrone assay)
CN1C(=O)CN=C(c2ccccc2)c2cc(Cl)ccc21 [diazepam, Diazepam]	fast compared to the solid dispersions	fast release	
OC[C@H]1O[C@@](CO)(O[C@H]2O[C@H](CO)[C@@H](O)[C@H](O)[C@H]2O)[C@@H](O)[C@@H]1O [sucrose]			dissolve faster compared to the inulins
OC[C@H]1O[C@H](O[C@H]2O[C@H](CO)[C@@H](O)[C@H](O)[C@H]2O)[C@H](O)[C@@H](O)[C@@H]1O [trehalose]			dissolve faster compared to the inulins
